# Data published in patent US11878975B2, “Substituted indole compounds useful as TLR inhibitors” (BRISTOL-MYERS SQUIBB COMPANY, priority 2017, dated 2024).
# Assays:
# Format in all cases: cell-based
# [1] = target: T1, human TLR7 (Homo sapiens, UniProt Q9NYK1); assay: TLR7 inhibition reporter assay (HEK-Blue cells, SEAP reporter, gardiquimod stimulation); conditions: HEK-Blue cells overexpressing human TLR7, SEAP reporter, gardiquimod 7.5 μM
# T1 construct: host or cells: HEK-Blue cells
# T1 sequence (Q9NYK1 27-1049): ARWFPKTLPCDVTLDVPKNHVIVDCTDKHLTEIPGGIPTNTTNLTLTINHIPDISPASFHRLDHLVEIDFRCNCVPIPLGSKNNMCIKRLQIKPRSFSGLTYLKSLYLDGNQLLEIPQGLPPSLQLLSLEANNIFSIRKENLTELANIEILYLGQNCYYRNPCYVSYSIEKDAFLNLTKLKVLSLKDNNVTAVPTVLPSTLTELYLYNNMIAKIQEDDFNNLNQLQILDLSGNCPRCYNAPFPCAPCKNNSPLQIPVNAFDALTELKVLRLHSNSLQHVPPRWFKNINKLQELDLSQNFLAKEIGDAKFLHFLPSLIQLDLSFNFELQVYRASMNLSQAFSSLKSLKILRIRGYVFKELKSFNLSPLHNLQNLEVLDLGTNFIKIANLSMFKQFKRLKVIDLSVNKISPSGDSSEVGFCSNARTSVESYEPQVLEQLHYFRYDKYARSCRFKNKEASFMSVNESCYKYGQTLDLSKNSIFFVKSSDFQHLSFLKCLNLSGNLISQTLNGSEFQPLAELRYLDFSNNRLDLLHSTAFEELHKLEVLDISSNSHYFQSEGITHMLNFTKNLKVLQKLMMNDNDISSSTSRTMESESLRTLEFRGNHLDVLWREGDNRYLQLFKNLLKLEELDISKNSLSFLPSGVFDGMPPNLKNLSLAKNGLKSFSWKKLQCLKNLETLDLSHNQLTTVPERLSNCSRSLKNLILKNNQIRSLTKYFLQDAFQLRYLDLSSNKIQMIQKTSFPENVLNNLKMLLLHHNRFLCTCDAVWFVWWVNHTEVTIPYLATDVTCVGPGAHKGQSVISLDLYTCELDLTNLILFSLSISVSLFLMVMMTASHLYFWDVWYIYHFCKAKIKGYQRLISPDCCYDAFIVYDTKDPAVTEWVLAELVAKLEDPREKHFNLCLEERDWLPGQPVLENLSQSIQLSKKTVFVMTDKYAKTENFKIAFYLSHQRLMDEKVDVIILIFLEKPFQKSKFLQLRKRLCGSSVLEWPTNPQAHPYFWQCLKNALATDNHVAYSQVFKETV
# Outline: (§1)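 Ligand levels: TLR7 gardiquimod 7.5 μM, TLR8 R848 15.9 μM, TLR9 ODN2006 5 nM, added after 30 min room-temperature compound pre-incubation at 0.05 nM-50 μM. Reporter SEAP read with HEK-Blue Detection reagent after 22 h, 37° C. Inhibition expressed as % reduction relative to agonist-plus-DMSO and known-inhibitor controls.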
# [2] = target: T2, human TLR9 (Homo sapiens, UniProt Q9NR96); assay: TLR9 inhibition reporter assay (HEK-Blue cells, SEAP reporter, ODN2006 stimulation); conditions: HEK-Blue cells overexpressing human TLR9, SEAP reporter, ODN2006 5 nM
# T2 construct: host or cells: HEK-Blue cells
# T2 sequence (Q9NR96 26-1032): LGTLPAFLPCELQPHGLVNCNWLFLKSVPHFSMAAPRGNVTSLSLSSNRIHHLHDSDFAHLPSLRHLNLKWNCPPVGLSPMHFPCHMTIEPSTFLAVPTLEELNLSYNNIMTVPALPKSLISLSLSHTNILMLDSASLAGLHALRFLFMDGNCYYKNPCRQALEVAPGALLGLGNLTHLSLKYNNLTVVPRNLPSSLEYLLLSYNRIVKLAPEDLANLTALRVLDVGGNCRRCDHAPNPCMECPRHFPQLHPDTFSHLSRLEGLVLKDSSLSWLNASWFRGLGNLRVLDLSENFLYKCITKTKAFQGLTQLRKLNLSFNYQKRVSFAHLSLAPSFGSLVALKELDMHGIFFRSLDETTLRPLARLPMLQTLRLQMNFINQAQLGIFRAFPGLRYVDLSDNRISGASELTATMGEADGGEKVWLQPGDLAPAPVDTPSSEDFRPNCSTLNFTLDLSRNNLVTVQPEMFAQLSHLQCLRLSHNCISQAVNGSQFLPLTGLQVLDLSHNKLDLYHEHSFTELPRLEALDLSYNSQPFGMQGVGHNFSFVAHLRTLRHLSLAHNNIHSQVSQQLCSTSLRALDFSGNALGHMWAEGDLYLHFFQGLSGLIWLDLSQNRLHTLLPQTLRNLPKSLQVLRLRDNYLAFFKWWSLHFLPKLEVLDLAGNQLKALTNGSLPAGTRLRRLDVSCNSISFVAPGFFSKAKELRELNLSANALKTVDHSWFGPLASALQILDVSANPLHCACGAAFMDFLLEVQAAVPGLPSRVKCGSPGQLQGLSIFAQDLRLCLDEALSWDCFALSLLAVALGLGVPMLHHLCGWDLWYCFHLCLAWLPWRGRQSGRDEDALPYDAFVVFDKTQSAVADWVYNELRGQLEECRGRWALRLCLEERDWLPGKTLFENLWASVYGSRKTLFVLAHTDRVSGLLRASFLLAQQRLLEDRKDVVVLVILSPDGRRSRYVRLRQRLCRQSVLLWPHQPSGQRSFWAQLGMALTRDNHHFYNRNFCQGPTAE
# Outline: as §1
# [3] = target: T3, human TLR8 (Homo sapiens, UniProt Q9NR97); assay: TLR8 inhibition reporter assay (HEK-Blue cells, SEAP reporter, R848 stimulation); conditions: HEK-Blue cells overexpressing human TLR8, SEAP reporter, R848 15.9 μM
# T3 construct: host or cells: HEK-Blue cells
# T3 sequence (Q9NR97 27-1041): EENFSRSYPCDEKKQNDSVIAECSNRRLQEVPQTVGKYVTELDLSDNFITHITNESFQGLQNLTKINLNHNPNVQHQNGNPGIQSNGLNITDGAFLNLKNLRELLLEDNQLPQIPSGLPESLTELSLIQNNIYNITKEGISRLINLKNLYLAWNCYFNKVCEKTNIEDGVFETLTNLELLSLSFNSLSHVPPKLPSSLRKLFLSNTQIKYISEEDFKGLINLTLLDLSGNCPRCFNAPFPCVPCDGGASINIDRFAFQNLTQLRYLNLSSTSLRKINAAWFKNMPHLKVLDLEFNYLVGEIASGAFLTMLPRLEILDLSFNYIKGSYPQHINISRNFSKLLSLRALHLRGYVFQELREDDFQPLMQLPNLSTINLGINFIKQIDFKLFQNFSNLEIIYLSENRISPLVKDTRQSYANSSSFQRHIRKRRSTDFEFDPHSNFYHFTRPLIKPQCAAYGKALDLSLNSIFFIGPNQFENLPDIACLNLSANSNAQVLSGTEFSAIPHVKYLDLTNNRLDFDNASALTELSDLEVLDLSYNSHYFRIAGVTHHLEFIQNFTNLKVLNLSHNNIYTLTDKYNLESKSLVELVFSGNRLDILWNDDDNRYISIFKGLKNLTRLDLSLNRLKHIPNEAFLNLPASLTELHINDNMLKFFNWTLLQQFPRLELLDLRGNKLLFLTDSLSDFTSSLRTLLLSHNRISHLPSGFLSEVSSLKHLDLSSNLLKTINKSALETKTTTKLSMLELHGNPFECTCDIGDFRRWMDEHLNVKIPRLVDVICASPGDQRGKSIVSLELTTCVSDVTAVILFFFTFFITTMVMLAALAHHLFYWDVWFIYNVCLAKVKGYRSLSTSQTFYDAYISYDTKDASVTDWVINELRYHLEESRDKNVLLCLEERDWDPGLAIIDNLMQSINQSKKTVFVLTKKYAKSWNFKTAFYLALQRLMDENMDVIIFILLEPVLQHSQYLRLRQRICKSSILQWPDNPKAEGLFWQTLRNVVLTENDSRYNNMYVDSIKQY
# Outline: as §1
structure (smiles),measurement,setting,value
COc1cc(-c2[nH]c3ccc(CCC4CNC4)cc3c2C(C)C)cn2ncnc12 [Example 440],IC50,[1],4 nM
same,IC50,[2],1480 nM
same,IC50,[3],16 nM
Cc1c(-c2[nH]c3ccc(C4CCC(NCC(C)(C)O)CC4)cc3c2C(C)C)cn2ncnc2c1C (stereo not drawn) [Example 112],IC50,[1],6 nM
same,IC50,[2],2320 nM
same,IC50,[3],2 nM
Cc1cc(-c2[nH]c3ccc([C@H]4C[C@H]4C(=O)NC4CCC5CNCC54)cc3c2C(C)C)ccn1 (stereo partly drawn) [Example 453],IC50,[1],77 nM
same,IC50,[2],191 nM
same,IC50,[3],66 nM
"Cc1cc(-c2[nH]c3ccc(C4CN(C)C(C)(C)CO4)cc3c2C(C)C)cn2ncnc12 (single isomer, unassigned) [Example 375, 2-(3-isopropyl-2-(8-methyl-[1,2,4]triazolo[1,5-a]pyridin-6-yl)-1H-indol-5-yl)-4,5,5-trimethylmorpholine]",IC50,[1],1 nM
same,IC50,[2],2060 nM
same,IC50,[3],4.7 nM
CNC(=O)CN1CC(c2ccc3[nH]c(-c4cn5ncnc5c(C)c4C)c(C(C)C)c3c2)C1 [Example 552],IC50,[1],4 nM
same,IC50,[2],5570 nM
same,IC50,[3],3.4 nM
Cc1cc(-c2[nH]c3ccc(CCN4CCCCC4)cc3c2C(C)C)cn(C)c1=O [Example 409],IC50,[1],23 nM
same,IC50,[2],15600 nM
same,IC50,[3],3 nM
Cc1cc(-c2[nH]c3ccc(C4CN(CCS(C)(=O)=O)C(C)(C)CO4)cc3c2C(C)C)cn2ncnc12 (stereo not drawn) [Example 384],IC50,[1],13 nM
same,IC50,[2],30100 nM
same,IC50,[3],11 nM
COc1cc(-c2[nH]c3ccc(CC4CN(CCS(C)(=O)=O)C4)cc3c2C(C)C)cn2ncnc12 [Example 431],IC50,[1],2 nM
same,IC50,[2],2780 nM
same,IC50,[3],3.5 nM
Cc1cc(-c2[nH]c3ccc(C4CCCN(C(=O)C5(N)CC5)C4)cc3c2C(C)C)cc(C)n1 (stereo not drawn) [Example 201],IC50,[1],7 nM
same,IC50,[2],19300 nM
same,IC50,[3],109 nM
"COc1cc(-c2[nH]c3ccc(C4CCC(N5CC(O)C5)CC4)cc3c2C(C)C)cn2ncnc12 (single isomer, unassigned) [Example 22]",IC50,[1],0.85 nM
same,IC50,[2],1200 nM
same,IC50,[3],3.9 nM
Cc1c(-c2[nH]c3ccc(C4CN(CC(N)=O)C4)cc3c2C(C)C)cn2ncnc2c1C [Example 548],IC50,[1],4 nM
same,IC50,[2],8050 nM
same,IC50,[3],5.1 nM
CC(C)c1c(-c2ccnc3[nH]ncc23)[nH]c2ccc(C3CCCNCC3)cc12 (stereo not drawn) [Example 501],IC50,[1],12 nM
same,IC50,[2],739 nM
same,IC50,[3],4.3 nM
